Measurements from patent US12421225B2, “Heteroaromatic amide derivative and medicament containing the same” (KAKEN PHARMACEUTICAL CO., LTD., priority 2018, dated 2025).

Legend:
human Nav1.7 = human Nav1.7 (Homo sapiens (Human), UniProt Q15858); assay: Human Nav1.7 inhibitory activity evaluation (automated patch clamp QPatch16X, HEK293A cells stably expressing human Nav1.7 and human Navβ1); assay type: cell-based; settings: human Nav1.7, automated patch clamp
In short: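 QPatch16X whole-cell recordings at room temperature from HEK293A cells stably expressing human Nav1.7 with Navβ1, CsF-based internal solution, pH 7.4 external, 0.1% DMSO. From −100 mV holding, protocol included a 15 s hold at a potential inactivating ~30-40% of channels; IC50 from inward current at the second −10 mV pulse.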

human Nav1.5 = human Nav1.5 (Homo sapiens (Human), UniProt Q14524); assay: Human Nav1.5 inhibitory activity evaluation (automated patch clamp QPatch16X, HEK293 cells stably expressing human Nav1.5); assay type: cell-based; settings: human Nav1.5, automated patch clamp
Method: Test Example 2: Human Nav1.5 Inhibitory Activity Evaluation
A cell line in which human Nav1.5 was stably expressed in HEK293 cells was used. DMEM supplemeted with 15% fetal bovine serum, 500 μg/ml geneticin, 100 units/ml penicillin, 100 μg/ml streptomycin, 20 mM HEPES was used as culture medium under the conditions of 37° C. and 5% CO2 in T175 flasks to carry out culturing. When 60-80% confluence was reached, a cell suspension of about 0.5-5.0×10^6 cells/mL was prepared. The amount of current through human Nav1.5 was recorded using a fully automatic patch clamp device QPatch16X at room temperature. As the extracellular solution, 145 mM NaCl, 4 mM KCl, 1 mM MgCl2, 2 mM CaCl2, 10 mM Glucose, and 10 mM HEPES at pH 7.4 was used. As the intracellular solution, 135 mM CsF, ⅕ mM EGTA/CsOH, 10 mM HEPES, and 10 mM NaCl at pH 7.3 was used. The test compounds were dissolved in DMSO and diluted with the extracellular solution to attend the DMSO concentration of 0.1% at the time of assay.
The current response was obtained at a sampling frequency of 25 kHz, and noise was removed with a 3 kHz low-pass filter. The holding potential was −80 mV. Correction of the leakage current was carried out by applying a step pulse of −100 mV before the test pulse. In order to investigate human Nav1.5 inhibitory effect of the test compound, test pulses imitating the action potential of cardiomyocytes were continuously given 20 times. The test pulses were given before and after the test compound addition.
The inhibitory activity of the test compound was determined based on the amount of inward current generated by the 20th depolarization pulse, and the 50% inhibitory concentration (IC50) was calculated from the concentration-response curve.

Chain of human Nav1.5 (Q14524 whole entry): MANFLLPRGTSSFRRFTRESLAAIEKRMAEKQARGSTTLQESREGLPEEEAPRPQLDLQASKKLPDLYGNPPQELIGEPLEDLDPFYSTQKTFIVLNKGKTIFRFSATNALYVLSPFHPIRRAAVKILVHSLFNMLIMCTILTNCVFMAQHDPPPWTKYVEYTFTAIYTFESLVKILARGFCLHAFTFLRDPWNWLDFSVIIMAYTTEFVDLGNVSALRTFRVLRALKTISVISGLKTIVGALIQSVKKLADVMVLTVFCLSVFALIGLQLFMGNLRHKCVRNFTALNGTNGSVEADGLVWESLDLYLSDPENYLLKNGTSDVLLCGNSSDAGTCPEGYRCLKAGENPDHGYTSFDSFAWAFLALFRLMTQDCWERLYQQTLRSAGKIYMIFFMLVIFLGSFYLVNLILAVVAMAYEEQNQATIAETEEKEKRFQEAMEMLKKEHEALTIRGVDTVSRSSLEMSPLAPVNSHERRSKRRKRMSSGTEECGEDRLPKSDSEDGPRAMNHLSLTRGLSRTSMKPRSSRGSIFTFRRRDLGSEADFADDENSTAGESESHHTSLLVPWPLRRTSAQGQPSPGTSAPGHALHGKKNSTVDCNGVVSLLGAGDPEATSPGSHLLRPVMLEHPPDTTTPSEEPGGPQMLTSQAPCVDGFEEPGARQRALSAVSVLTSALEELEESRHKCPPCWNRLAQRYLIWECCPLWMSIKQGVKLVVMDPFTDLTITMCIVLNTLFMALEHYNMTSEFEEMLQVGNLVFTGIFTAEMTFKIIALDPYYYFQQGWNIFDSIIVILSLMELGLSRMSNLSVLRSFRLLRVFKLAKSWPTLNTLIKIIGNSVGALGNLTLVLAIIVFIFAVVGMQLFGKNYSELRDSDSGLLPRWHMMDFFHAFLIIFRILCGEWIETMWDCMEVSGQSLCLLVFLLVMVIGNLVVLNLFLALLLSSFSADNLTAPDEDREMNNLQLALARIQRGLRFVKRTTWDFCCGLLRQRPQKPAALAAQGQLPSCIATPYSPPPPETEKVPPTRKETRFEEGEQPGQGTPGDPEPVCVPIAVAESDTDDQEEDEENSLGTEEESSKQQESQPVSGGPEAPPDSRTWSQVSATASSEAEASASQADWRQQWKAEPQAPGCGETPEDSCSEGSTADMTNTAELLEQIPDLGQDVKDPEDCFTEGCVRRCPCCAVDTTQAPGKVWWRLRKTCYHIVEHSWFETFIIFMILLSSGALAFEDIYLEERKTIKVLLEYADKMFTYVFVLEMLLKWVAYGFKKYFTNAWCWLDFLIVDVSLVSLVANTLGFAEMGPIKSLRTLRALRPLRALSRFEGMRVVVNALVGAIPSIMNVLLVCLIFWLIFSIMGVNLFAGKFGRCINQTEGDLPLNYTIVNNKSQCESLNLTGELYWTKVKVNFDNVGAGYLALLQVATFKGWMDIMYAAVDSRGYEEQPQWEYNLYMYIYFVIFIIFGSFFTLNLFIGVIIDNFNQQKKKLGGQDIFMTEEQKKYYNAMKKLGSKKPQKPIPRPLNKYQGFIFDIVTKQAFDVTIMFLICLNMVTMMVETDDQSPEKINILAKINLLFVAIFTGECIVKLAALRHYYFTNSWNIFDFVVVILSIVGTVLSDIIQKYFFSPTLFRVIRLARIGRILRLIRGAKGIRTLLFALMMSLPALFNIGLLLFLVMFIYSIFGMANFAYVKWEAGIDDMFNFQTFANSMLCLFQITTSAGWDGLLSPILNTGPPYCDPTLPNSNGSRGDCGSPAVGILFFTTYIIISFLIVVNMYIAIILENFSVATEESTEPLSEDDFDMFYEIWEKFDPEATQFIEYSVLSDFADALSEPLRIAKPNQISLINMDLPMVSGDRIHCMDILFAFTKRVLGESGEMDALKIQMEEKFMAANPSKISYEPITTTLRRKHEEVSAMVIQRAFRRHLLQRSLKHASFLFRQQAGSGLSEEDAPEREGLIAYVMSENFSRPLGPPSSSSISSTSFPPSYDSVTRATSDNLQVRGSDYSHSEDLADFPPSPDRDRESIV
Chain of human Nav1.7 (Q15858 whole entry): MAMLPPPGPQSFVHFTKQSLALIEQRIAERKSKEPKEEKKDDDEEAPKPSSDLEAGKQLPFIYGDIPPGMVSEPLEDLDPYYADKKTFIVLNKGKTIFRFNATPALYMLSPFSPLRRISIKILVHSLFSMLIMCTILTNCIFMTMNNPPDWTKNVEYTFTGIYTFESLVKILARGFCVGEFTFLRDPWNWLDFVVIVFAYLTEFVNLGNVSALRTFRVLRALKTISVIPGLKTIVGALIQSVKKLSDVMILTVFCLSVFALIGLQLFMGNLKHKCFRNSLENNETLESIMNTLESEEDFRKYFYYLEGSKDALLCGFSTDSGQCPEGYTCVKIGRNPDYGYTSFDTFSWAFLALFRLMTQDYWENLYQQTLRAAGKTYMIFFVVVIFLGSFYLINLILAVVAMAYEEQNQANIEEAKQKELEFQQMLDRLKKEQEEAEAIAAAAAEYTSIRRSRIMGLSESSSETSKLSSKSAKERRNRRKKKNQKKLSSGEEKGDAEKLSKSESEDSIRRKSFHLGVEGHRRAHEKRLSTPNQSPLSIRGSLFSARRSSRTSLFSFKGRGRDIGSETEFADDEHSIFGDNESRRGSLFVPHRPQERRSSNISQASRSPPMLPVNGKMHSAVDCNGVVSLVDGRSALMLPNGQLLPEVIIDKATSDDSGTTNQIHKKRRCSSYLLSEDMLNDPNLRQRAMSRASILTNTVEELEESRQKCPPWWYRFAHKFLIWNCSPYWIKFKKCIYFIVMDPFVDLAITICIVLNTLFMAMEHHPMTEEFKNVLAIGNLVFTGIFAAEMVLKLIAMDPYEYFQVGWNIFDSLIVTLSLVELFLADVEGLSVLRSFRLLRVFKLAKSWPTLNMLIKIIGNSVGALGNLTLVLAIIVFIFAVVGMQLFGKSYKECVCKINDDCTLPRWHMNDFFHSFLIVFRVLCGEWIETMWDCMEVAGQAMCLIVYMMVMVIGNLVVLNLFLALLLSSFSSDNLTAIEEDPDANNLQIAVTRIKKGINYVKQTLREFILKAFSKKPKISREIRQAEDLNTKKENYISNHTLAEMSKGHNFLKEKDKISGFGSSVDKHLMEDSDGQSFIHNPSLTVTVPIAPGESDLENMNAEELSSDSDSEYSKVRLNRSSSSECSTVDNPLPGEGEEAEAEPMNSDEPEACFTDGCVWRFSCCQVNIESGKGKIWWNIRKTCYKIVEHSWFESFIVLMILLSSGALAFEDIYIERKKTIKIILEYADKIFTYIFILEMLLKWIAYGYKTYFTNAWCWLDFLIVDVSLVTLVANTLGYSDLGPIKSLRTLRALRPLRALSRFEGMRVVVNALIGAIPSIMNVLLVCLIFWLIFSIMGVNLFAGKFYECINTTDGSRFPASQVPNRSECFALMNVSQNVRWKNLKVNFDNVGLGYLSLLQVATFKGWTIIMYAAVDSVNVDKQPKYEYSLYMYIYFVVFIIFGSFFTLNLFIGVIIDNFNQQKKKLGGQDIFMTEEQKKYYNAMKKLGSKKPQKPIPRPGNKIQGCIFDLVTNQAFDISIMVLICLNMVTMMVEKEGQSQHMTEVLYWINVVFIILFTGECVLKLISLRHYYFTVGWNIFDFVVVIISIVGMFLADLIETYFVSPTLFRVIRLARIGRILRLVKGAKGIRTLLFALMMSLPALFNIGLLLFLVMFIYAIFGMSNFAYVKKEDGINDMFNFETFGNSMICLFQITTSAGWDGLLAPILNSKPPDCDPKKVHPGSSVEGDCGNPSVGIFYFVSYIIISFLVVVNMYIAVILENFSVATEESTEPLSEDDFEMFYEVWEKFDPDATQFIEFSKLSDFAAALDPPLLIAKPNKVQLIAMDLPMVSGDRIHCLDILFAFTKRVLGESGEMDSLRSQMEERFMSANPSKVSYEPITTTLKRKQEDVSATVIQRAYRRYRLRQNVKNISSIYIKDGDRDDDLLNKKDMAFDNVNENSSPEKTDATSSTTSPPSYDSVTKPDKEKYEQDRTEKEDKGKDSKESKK
Chain of human Nav1.7 (Q07699 19-218 partner): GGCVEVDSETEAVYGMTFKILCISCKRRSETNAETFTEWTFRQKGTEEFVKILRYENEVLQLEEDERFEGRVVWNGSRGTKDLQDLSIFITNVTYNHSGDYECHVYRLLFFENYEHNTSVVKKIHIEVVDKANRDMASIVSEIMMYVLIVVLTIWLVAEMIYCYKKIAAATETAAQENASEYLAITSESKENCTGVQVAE

SMILES | IC50 (human Nav1.7) [nM] | IC50 (human Nav1.5) [nM]
O=C(N[C@H]1COc2ccc(COCC(F)(F)F)cc2C1)c1cc2n(n1)CC(CCOC(F)F)O2 (single isomer, unassigned) [215 (isomer A)] | < 1000 | 1000 to 3000
O=C(N[C@H]1COc2ccc(CCOC(F)F)cc2C1)c1cc2n(n1)CC(CCOC(F)F)O2 (single isomer, unassigned) [217 (isomer A)] | < 1000 | 1000 to 3000
O=C(N[C@H]1COc2ccc(CCOC(F)F)cc2C1)c1cc2n(n1)CC(CCOC(F)F)O2 (single isomer, unassigned) [217 (isomer B)] | < 1000 | < 1000
O=C(N[C@H]1COc2ccc(CC(F)F)cc2C1)c1cc2n(n1)CC(CCOC(F)F)O2 (single isomer, unassigned) [219 (isomer A)] | < 10000 | ≥ 3000
O=C(N[C@H]1COc2ccc(CC(F)F)cc2C1)c1cc2n(n1)CC(CCOC(F)F)O2 (single isomer, unassigned) [219 (isomer B)] | < 1000 | 1000 to 3000
Cn1cc(-c2ccc3c(c2)C[C@@H](NC(=O)c2cc4n(n2)CC(CCOC(F)F)O4)CO3)cn1 (single isomer, unassigned) [221 (isomer A)] | < 10000 | ≥ 3000
Cn1cc(-c2ccc3c(c2)C[C@@H](NC(=O)c2cc4n(n2)CC(CCOC(F)F)O4)CO3)cn1 (single isomer, unassigned) [221 (isomer B)] | < 1000 | 1000 to 3000
O=C(N[C@H]1COc2ccc(-c3cnccn3)cc2C1)c1cc2n(n1)CC(CCOC(F)F)O2 (single isomer, unassigned) [223 (isomer B)] | < 1000 | 1000 to 3000
O=C(N[C@H]1COc2ccc(COCC(F)(F)F)cc2C1)c1cc2n(n1)CC(CCOCC(F)F)O2 (single isomer, unassigned) [224 (isomer A)] | < 1000 | ≥ 3000
O=C(N[C@H]1COc2ccc(COCC(F)(F)F)cc2C1)c1cc2n(n1)CC(CCOCC(F)F)O2 (single isomer, unassigned) [224 (isomer B)] | < 1000 | 1000 to 3000
O=C(N[C@H]1COc2ccc(Cl)cc2C1)c1cc2n(n1)CC(CCNCC(F)(F)F)O2 (single isomer, unassigned) [226 (isomer A)] | < 1000 | ≥ 3000
O=C(N[C@H]1COc2ccc(Cl)cc2C1)c1cc2n(n1)CC(CCNCC(F)(F)F)O2 (single isomer, unassigned) [226 (isomer B)] | < 1000 | 1000 to 3000
Cc1ccc2c(c1)C[C@@H](NC(=O)c1cc3n(n1)CC(CCNCC(F)(F)F)O3)CO2 (single isomer, unassigned) [228 (isomer A)] | < 1000 | ≥ 3000
O=C(N[C@H]1COc2ccc(C(F)(F)F)cc2C1)c1cc2n(n1)CC(CCNCC(F)(F)F)O2 (single isomer, unassigned) [230 (isomer A)] | < 1000 | ≥ 3000
O=C(N[C@H]1COc2ccc(COCC(F)(F)F)cc2C1)c1cc2n(n1)CC(CCNCC(F)(F)F)O2 (single isomer, unassigned) [232 (isomer A)] | < 1000 | 1000 to 3000
O=C(N[C@H]1COc2ccc(COCC(F)(F)F)cc2C1)c1cc2n(n1)CC(CCNCC(F)(F)F)O2 (single isomer, unassigned) [232 (isomer B)] | < 1000 | ≥ 3000
O=C(N[C@H]1COc2ccc(Cl)cc2C1)c1cc2n(n1)CC(CCN1CC(F)(F)C1)O2 (single isomer, unassigned) [234 (isomer A)] | < 1000 | ≥ 3000
O=C(N[C@H]1COc2ccc(Cl)cc2C1)c1cc2n(n1)CC(CCN1CC(F)(F)C1)O2 (single isomer, unassigned) [234 (isomer B)] | < 1000 | < 1000

SMILES | IC50 (human Nav1.7) [nM] | IC50 (human Nav1.5) [nM]
O=C(N[C@H]1COc2ccc(C(F)(F)F)cc2C1)c1cc2n(n1)CC(CCN1CC(F)(F)C1)O2 (single isomer, unassigned) [236 (isomer B)] | < 1000 | 1000 to 3000
N#Cc1ccc2c(c1)C[C@@H](NC(=O)c1cc3n(n1)CC(CCSCC(F)(F)F)O3)CO2 (single isomer, unassigned) [244 (isomer B)] | < 1000 | < 1000
N#Cc1ccc2c(c1)C[C@@H](NC(=O)c1cc3n(n1)CC(CCCOCC(F)(F)F)O3)CO2 (single isomer, unassigned) [246 (isomer A)] | < 1000 | 1000 to 3000
N#Cc1ccc2c(c1)C[C@@H](NC(=O)c1cc3n(n1)CC(CCCOCC(F)(F)F)O3)CO2 (single isomer, unassigned) [246 (isomer B)] | < 1000 | ≥ 3000
N#Cc1ccc2c(c1)C[C@@H](NC(=O)c1cc3n(n1)CC(CCCOC(F)(F)F)O3)CO2 (single isomer, unassigned) [247 (isomer A)] | < 1000 | 1000 to 3000
N#Cc1ccc2c(c1)C[C@@H](NC(=O)c1cc3n(n1)CC(CCCOC(F)F)O3)CO2 (single isomer, unassigned) [248 (isomer A)] | < 1000 | 1000 to 3000
O=C(N[C@H]1COc2ccc(Cl)cc2C1)c1cc2n(n1)CCC(OCC(F)(F)F)CO2 (single isomer, unassigned) [256 (isomer A)] | < 1000 | ≥ 3000
O=C(N[C@H]1COc2ccc(Cl)cc2C1)c1cc2n(n1)CCC(OCC(F)(F)F)CO2 (single isomer, unassigned) [256 (isomer B)] | < 1000 | 1000 to 3000
O=C(N[C@H]1COc2ccc(C(F)(F)F)cc2C1)c1cc2n(n1)CCC(OCC(F)(F)F)CO2 (single isomer, unassigned) [257 (isomer A)] | < 1000 | ≥ 3000
CC(C)(F)C1CCn2nc(C(=O)N[C@H]3COc4ccc(C#N)cc4C3)cc2O1 (single isomer, unassigned) [547 (isomer A)] | < 10000 | ≥ 3000
N#Cc1ccc2c(c1)C[C@@H](NC(=O)c1cc3n(n1)CCC(COCC1(F)CC1)O3)CO2 (single isomer, unassigned) [552 (isomer A)] | < 10000 | ≥ 3000
N#CC1(COCC2CCn3nc(C(=O)N[C@H]4COc5ccc(C(F)(F)F)cc5C4)cc3O2)CC1 (single isomer, unassigned) [554 (isomer A)] | < 1000 | ≥ 3000
N#CC1(COCC2CCn3nc(C(=O)N[C@H]4COc5ccc(Cl)cc5C4)cc3O2)CC1 (single isomer, unassigned) [563 (isomer A)] | < 10000 | 1000 to 3000
N#CC1(COCC2CCn3nc(C(=O)N[C@H]4COc5ccc(Cl)cc5C4)cc3O2)CC1 (single isomer, unassigned) [563 (isomer B)] | < 1000 | ≥ 3000
COC1c2cc(C(F)(F)F)ccc2OC[C@@H]1NC(=O)c1cc2n(n1)CCC(COCC(F)(F)F)O2 (single isomer, unassigned) [598 (isomer B)] | < 1000 | 1000 to 3000
O=C(N[C@H]1COc2ccc(C(F)(F)F)cc2C1O)c1cc2n(n1)CC(CCOCC(F)(F)F)O2 (single isomer, unassigned) [600 (isomer B)] | < 1000 | 1000 to 3000
O=C(N[C@H]1COc2ccc(CC(F)F)cc2C1)c1cc2n(n1)CCC(COCC(F)(F)F)CO2 (single isomer, unassigned) [601 (isomer B)] | < 10000 | ≥ 3000
